Results on 4 compounds are retold here after patent US20050119289A1 (priority 2002, published 2005).

Values after ≈ are worked out from the molar mass of the structure shown. Where two headings read alike, the source gives them in different places.

One data set addresses T1, rA1 adenosine receptor (Rattus norvegicus, UniProt P25099).
T1 sequence (P25099 1-326): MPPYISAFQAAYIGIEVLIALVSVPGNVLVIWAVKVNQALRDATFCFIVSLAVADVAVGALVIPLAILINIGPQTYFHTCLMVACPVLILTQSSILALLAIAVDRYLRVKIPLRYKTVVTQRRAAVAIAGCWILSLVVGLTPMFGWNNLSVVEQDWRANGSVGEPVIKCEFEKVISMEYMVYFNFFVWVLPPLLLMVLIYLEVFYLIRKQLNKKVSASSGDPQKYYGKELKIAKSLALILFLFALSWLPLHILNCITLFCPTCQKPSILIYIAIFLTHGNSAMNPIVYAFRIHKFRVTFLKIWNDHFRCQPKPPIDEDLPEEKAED
Briefly: Binding affinity at rA1 adenosine receptors.

The target of a further data set is rA2A adenosine receptor (Rattus norvegicus, UniProt P30543). Nature of the data set: Binding affinity at rA2A adenosine receptors.
Sequence of rA2A adenosine receptor (P30543 whole entry): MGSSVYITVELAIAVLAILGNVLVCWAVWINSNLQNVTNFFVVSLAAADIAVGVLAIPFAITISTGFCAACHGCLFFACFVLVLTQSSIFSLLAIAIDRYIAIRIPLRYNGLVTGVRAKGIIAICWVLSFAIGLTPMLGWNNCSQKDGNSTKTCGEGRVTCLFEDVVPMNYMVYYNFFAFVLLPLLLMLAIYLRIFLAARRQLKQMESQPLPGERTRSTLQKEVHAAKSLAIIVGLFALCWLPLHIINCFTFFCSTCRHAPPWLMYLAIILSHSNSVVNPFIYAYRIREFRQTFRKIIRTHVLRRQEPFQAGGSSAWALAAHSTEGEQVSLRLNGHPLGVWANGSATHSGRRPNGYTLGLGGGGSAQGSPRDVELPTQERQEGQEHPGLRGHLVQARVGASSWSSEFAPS
Data set [1] has as its system human melanoma A375 cell line. Nature of the data set: MTT growth inhibitory assay, A375. Background: Tetrazolium assays rely on reduction of a dye to a coloured formazan, in cell work by metabolically active cells.
Protocol: (§5) For chemotherapeutic enhancement testing, the human melanoma A375, human lung carcinoma SKMES, colon carcinoma HT29, and pancreatic cancer Panc-1 cell lines were originally obtained from the ATCC (American Type Culture Collection) and have been maintained at PRC. […] The cells are cultured in a T25 Falcon Tissue Culture flask in a humidified incubator at 37° C. with 5% CO2-95% air. The cells are sub-cultured twice a week. The doubling times of A375, SKMES, HT29, and Panc-1 cultures are approximately 22, 46, 48, and 60 hr, respectively.
(§6) One of the growth inhibitory assays is the MTT assay. Cells (1000-1500 cells/well) are seeded in a 96-well micro culture plate in a total volume of 100 μl/well. After overnight incubation in a humidified incubator at 37° C. with 5% CO2-95% air, chemotherapeutic drug solutions diluted with culture medium at various concentrations are added in the amount of 100 μl to each well. The plates are placed in a humidified incubator at 37° C. with 5% CO2-95% air for 7-10 days. The plates are then centrifuged briefly and 100 μl of the growth medium is removed. Cell cultures are incubated with 50 μl of MTT [3-(4,5-dimethylthiazol-2-yl)-2,5-diphenyl-tetrazolium bromide] reagent (1 mg/ml in Dulbecco's phosphate-buffered saline) for 4 hr at 37° C. The resultant purple formazan precipitate is solubilized with 200 μl of 0.04 N HCl in isopropanol. Absorbance is measured at a wavelength of 595 nm and at a reference wavelength of 655 nm using a Bio-Rad Model 3550 Microplate Reader. Preferably, all tests are run in duplicate for each dose level.
(§7) The EZED50 computer program estimates the concentration of agent that inhibits cell growth by 50% as compared to the control cells. This is termed the IC50 and is determined by curve fitting test data using the following four logistic equation.
(§8) Inhibitory assay testing is also used to determine enhanced therapeutic effects from combining A3 receptor antagonists with other tumor inhibiting agents. The inhibitory cell growth assays are run with and without selected concentrations of A3 receptor antagonists. An enhanced therapeutic effect is present when the IC50 of the tumor inhibiting agent is lower with the A3 receptor antagonist.
(§9) Quantitatively, the enhancement factor (EF) is calculated by dividing the IC50 value of the tumor inhibiting agent for a tumor cell line by the IC50 value of the agent with A3 receptor antagonist for the same cell line: [formula]
For data set [2] the following is noted: docetaxel administered at 100 mg/m^2; cited from earlier work.
Data set [3] concerns human colon carcinoma HT29 cell line. Nature of the data set: MTT growth inhibitory assay, HT29. It counts as cell-based. The conditions noted are these: Homo sapiens, HT-29, HT29 cells, read-out: IC50 of anti-neoplastic agent used jointly with A3 antagonist. An excerpt: (§1) The cells are sub-cultured twice a week.
For data set [4], the system named is human pancreatic cancer Panc-1 cell line. Briefly: MTT growth inhibitory assay, Panc-1. Type of data set: cell-based. The conditions noted are these: PANC-1, Panc-1 cells, read-out: IC50 of anti-neoplastic agent used jointly with A3 antagonist.
Protocol: as §5, §6, §7, §8, §9
Data set [5] relates to human lung carcinoma SKMES cell line. Briefly: MTT growth inhibitory assay, SKMES. It counts as cell-based. The conditions noted are these: SKMES cells, read-out: IC50 of anti-neoplastic agent used jointly with A3 antagonist.
Source text: as §1

Data set [6] has as its system human melanoma A375 cell line.
Protocol: as §5, §6, §7, §8, §9
In another data set the test system is NCTC2544 cells. Nature of the data set: Flow cytometry analysis of G2/M accumulation and sub-G1 apoptosis, NCTC 2544. The conditions noted are these: for EC50: Homo sapiens, NCTC-2544, NCTC 2544; for ECMAX (sub-G1 accumulation): NCTC 2544. It counts as cell-based, human. Here is the method: (§2) A375 and NCTC2544 adherent cells were trypsinized, mixed with floating cells, washed with PBS and permeabilised in 70% (vol/vol) ethanol/PBS solution at 4° C. for at least 24 hours. Jurkat, HeL023 and PBMC cells were centrifuged for 10 minutes at 1000×g. The cell pellet was then resuspended and permeabilised in 70% (vol/vol) ethanol/PBS solution at 4° C. for at least 24 hours. The cells were washed with PBS and the DNA was stained with a PBS solution, containing 20 μg/ml of propidium iodide and 100 μg/ml of RNAse, at room temperature for 30 minutes. Cells were analysed by FACScan (Becton-Dickinson) and the content of DNA was evaluated by the Cell-LISYS program (Becton-Dickinson). Cell distribution among cell cycle phases and apoptotic cells was evaluated as previously described (Secchiero et al., 2001). Briefly, the cell cycle distribution is shown as the percentage of cells containing 2n (G1 phase), 4n (G2 and M phases), 4n>x>2n. DNA amount (S phase) judged by propidium iodide staining. The apoptotic population is the percentage of cells with DNA content lower than 2n.
(§3) To verify the role of A3 receptor antagonists on paclitaxel and vindesine mediated alteration of cell proliferation and apoptosis, testing was performed with additional cell lines. […] Experimental conditions are similar to those for the A375 cell testing.
(§4) EC50 values were obtained by analysing G2/M accumulation dose response curve. ECMAXvalues were obtained by analysing sub-G1 accumulation dose response curve. Paclitaxel values have units of ng/ml. Vindesine values have units of nM. nd: not done.
(In general: In flow cytometry, cells or beads pass a laser one at a time.)

A further data set has as its system HeL023 cells. Briefly: Flow cytometry analysis of G2/M accumulation and sub-G1 apoptosis, HeL023. The conditions noted are these: for EC50: Homo sapiens. Type of data set: cell-based, human. Here is the method:
as §2, §3, §4

The next data set deals with Jurkat cells. Briefly: Flow cytometry analysis of G2/M accumulation and sub-G1 apoptosis, Jurkat. The conditions noted are these: for EC50: Homo sapiens. Type of data set: cell-based, human. Here is the method:
as §2, §3, §4

A further data set relates to A375 cells. Nature of the data set: Flow cytometry analysis of G2/M accumulation and sub-G1 apoptosis, A375. It counts as cell-based, human. The conditions noted are these: for EC50: Homo sapiens, A-375. Here is the method:
as §2
Cell proliferation and apoptosis are quantified by flow cytometer analysis after propidium-iodide (PI) DNA staining. At 24 hours post-exposure, paclitaxel and vindesine induced a dose dependent cell accumulation into G2/M cell cycle phases and a parallel decrease of the G1 population.
as §4

For another data set, the system named is PBMC blasts. Nature of the data set: Flow cytometry analysis of G2/M accumulation, PBMC. Type of data set: cell-based. The conditions noted are these: Homo sapiens, vindesine with MRE3008F20 10 μM.
Where [7] appears, read: A-375, read-out: IC50 of anti-neoplastic agent used jointly with A3 antagonist, A375 cells, with IL-10 0.5 μg/ml.
Where [8] appears, read: A-375, read-out: IC50 of anti-neoplastic agent used jointly with A3 antagonist, A375 cells, with IL-10 5 μg/ml.
The mark [9] stands for this setting: A-375, read-out: IC50 of anti-neoplastic agent used jointly with A3 antagonist, A375 cells, with IL-10 […].
Where [10] appears, read: A-375, read-out: IC50 of anti-neoplastic agent used jointly with A3 antagonist, A375 cells, with IL-11 0.5 μg/ml.
The mark [11] stands for this setting: A-375, read-out: IC50 of anti-neoplastic agent used jointly with A3 antagonist, A375 cells, with IL-11 5 μg/ml.
Setting [12] is: A-375, read-out: IC50 of anti-neoplastic agent used jointly with A3 antagonist, A375 cells, with MRE3008F20 1 μg/ml.
The mark [13] stands for this setting: A-375, read-out: IC50 of anti-neoplastic agent used jointly with A3 antagonist, A375 cells, with MRE3008F20 3 μg/ml.
Setting [14] is: A-375, read-out: IC50 of anti-neoplastic agent used jointly with A3 antagonist, A375 cells, with MRE3008F20 10 μg/ml.
The mark [15] stands for this setting: paclitaxel with MRE3008F20 10 μM.
The mark [16] stands for this setting: vindesine with MRE3008F20 10 μM.

Protocol for PBMC blasts: For multi-drug resistance testing, A375 and NCTC2544 cells are grown adherently and maintained in DMEM and EMEM medium, respectively, containing 10% fetal calf serum, penicillin (100 U/ml), streptomycin (100 μg/ml), L-glutamine (2 mM) at 37° C. in 5% CO2/95% air. HeL023 and Jurkat were grown in RPMI-1640 medium, containing 10% fetal calf serum, penicillin (100 U/ml), streptomycin (100 μg/ml), L-glutamine (2 mM) at 37° C. in 5% CO2/95% air. Cells are passaged two or three times weekly at a ratio between 1:5 and 1:10. Lymphocytes were isolated from buffy coats kindly provided by the Blood Bank of the University Hospital of Ferrara. Blood donated by healthy volunteers, after informed consent for research was obtained. Lymphocytes were isolated by density gradient centrifugation (Ficoll/Histopaque 1.077 g/ml). […]
A375 and NCTC2544 adherent cells were trypsinized, mixed with floating cells, washed with PBS and permeabilised in 70% (vol/vol) ethanol/PBS solution at 4° C. for at least 24 hours. […] Cells were analysed by FACScan (Becton-Dickinson) and the content of DNA was evaluated by the Cell-LISYS program (Becton-Dickinson). Cell distribution among cell cycle phases and apoptotic cells was evaluated as previously described (Secchiero et al., 2001). […]

For the compound `CN(C)c1ccc(NC(=O)Nc2nc3nn(C)cc3c3nc(-c4ccco4)nn23)cc1` [IL-11, N-1-(4-dimethylamino-phenyl)-N′-5-[8-methyl-2-(2-furyl)-pyrazolo[4,3-e]1,2,4-triazolo[1,5-c]pyrimidine]-urea], the Ki on rA1 adenosine receptor and on rA2A adenosine receptor was over 10000 nM throughout.

`CC(=O)O[C@@]12CO[C@@H]1C[C@H](O)[C@@]1(C)C(=O)[C@H](O)C3=C(C)[C@@H](OC(=O)[C@H](O)[C@@H](NC(=O)OC(C)(C)C)c4ccccc4)C[C@@](O)([C@@H](OC(=O)c4ccccc4)[C@H]21)C3(C)C` [docetaxel]: the IC50 in data set [1] (setting [7]) is 0.0025 ng/mL (≈ 0.00309 nM); in [1] (setting [8]), 0.0072 ng/mL (≈ 0.00891 nM); in data set [1] (setting [9]), 0.0023 ng/mL (≈ 0.00285 nM); in data set [1] (setting [10]), 0.0087 ng/mL (≈ 0.0108 nM); in [1] (setting [11]), 0.0071 ng/mL (≈ 0.00879 nM); in data set [1] (setting [12]), 0.0006 ng/mL (≈ 0.000743 nM). The IC50 in data set [1] (setting [13]) stood at 0.0055 ng/mL (≈ 0.00681 nM); in data set [1] (setting [14]) it was 0.0072 ng/mL (≈ 0.00891 nM); in [3] (with IL-10 0.5 μg/ml) it was 0.0033 ng/mL (≈ 0.00408 nM); in data set [3] (with IL-11 0.5 μg/ml), 0.0028 ng/mL (≈ 0.00347 nM); in [3] (with MRE3008F20 1 μg/ml), 0.0012 ng/mL (≈ 0.00149 nM); in data set [4] (with IL-10 0.5 μg/ml), 0.47 ng/mL (≈ 0.582 nM). The IC50 in [4] (with IL-11 0.5 μg/ml) was found to be 0.5 ng/mL (≈ 0.619 nM); in [4] (with MRE3008F20 1 μg/ml), 0.38 ng/mL (≈ 0.47 nM); in data set [5] (with IL-10 0.5 μg/ml), 0.17 ng/mL (≈ 0.21 nM); in [5] (with IL-11 0.5 μg/ml), 0.25 ng/mL (≈ 0.309 nM); in data set [5] (with MRE3008F20 1 μg/ml), 0.13 ng/mL (≈ 0.161 nM); in data set [6] it was 0.005 ng/mL (≈ 0.00619 nM). The “acute hypersensitivity reaction, patients” value in [2] was 13%. Also, the “severe hypersensitivity reaction, patients” value in data set [2] is recorded as 1.2%.

In the case of `CC(=O)O[C@H]1C(=O)[C@@]2(C)[C@H]([C@H](OC(=O)c3ccccc3)[C@]3(O)C[C@H](OC(=O)[C@H](O)[C@@H](NC(=O)c4ccccc4)c4ccccc4)C(C)=C1C3(C)C)[C@]1(OC(C)=O)CO[C@@H]1C[C@@H]2O` [paclitaxel], the IC50 stood at 1.2 ng/mL (≈ 1.41 nM) in data set [1] (setting [7]); 0.5 ng/mL (≈ 0.586 nM) in data set [1] (setting [8]); 0.61 ng/mL (≈ 0.714 nM) in data set [1] (setting [9]); 1.4 ng/mL (≈ 1.64 nM) in [1] (setting [10]); 0.4 ng/mL (≈ 0.468 nM) in data set [1] (setting [11]); 0.59 ng/mL (≈ 0.691 nM) in data set [1] (setting [12]). Moreover, the IC50 in [1] (setting [13]) was 0.66 ng/mL (≈ 0.773 nM); in data set [1] (setting [14]), 0.54 ng/mL (≈ 0.632 nM); in data set [1] (A-375, read-out: IC50 of paclitaxel plus MRE3008F20, IL-10, and IL-11, A375, with 10 μg/ml of MRE3008F20 or 5 μg/ml of IL-10 or IL-11), 0.4 to 0.54 ng/mL; in data set [3] (with IL-10 0.5 μg/ml), 1 ng/mL (≈ 1.17 nM); in data set [3] (with IL-11 0.5 μg/ml) it was 0.99 ng/mL (≈ 1.16 nM); in [3] (with MRE3008F20 1 μg/ml), 0.85 ng/mL (≈ 0.995 nM). Further, the IC50 was 1.7 ng/mL (≈ 1.99 nM) in data set [4] (with IL-10 0.5 μg/ml); 1.6 ng/mL (≈ 1.87 nM) in [4] (with IL-11 0.5 μg/ml); 1.5 ng/mL (≈ 1.76 nM) in data set [4] (with MRE3008F20 1 μg/ml); 1.2 ng/mL (≈ 1.41 nM) in [5] (with IL-10 0.5 μg/ml); 0.78 ng/mL (≈ 0.913 nM) in data set [5] (with IL-11 0.5 μg/ml); 0.8 ng/mL (≈ 0.937 nM) in data set [5] (with MRE3008F20 1 μg/ml). This compound also displayed an IC50 in data set [6] of 0.67 ng/mL (≈ 0.785 nM). Further, the EC50 (in general, the concentration at which the effect is half-maximal) was found to be 2.41 ± 0.3 ng/mL in the data set on NCTC2544 cells (setting [15]), 4.1 ± 0.4 ng/mL in the data set on HeL023 cells (setting [15]), 2.52 ± 0.3 ng/mL in the data set with Jurkat cells (setting [15]) and 8.6 ± 0.81 ng/mL with A375 cells. Moreover, the “ECMAX (sub-G1 accumulation)” value turned out to be 2.55 ± 0.24 ng/mL in the data set with NCTC2544 cells (setting [15]), 3.19 ± 0.30 ng/mL in the data set with HeL023 cells (setting [15]) and 2.29 ± 0.31 ng/mL with Jurkat cells (setting [15]). In addition, the “percentage of apoptotic cells, maximum value” with A375 cells (A375, paclitaxel at 5 ng/ml, range on different experiments) lay in the range of 35 to 53%. Further, the “ECMAX, concentration exerting the maximal apoptosis (sub-G1)” value with A375 cells (A375, paclitaxel with MRE3008F20 10 μM) is 3.04 ± 0.32 ng/mL; with A375 cells (A375, paclitaxel, DMSO (no antagonist)) it was 6.00 ± 0.63 ng/mL. Also, the “EC50, G2/M accumulation” value with A375 cells (A375, paclitaxel, DMSO (no antagonist), 24 hours) was 16.60 ± 2.00 ng/mL (≈ 19.4 nM).

For `CC[C@]1(O)C[C@@H]2CN(CCc3c([nH]c4ccccc34)[C@@](C(=O)OC)(c3cc4c(cc3OC)N(C)[C@H]3[C@@](O)(C(N)=O)[C@H](O)[C@]5(CC)C=CCN6CC[C@]43[C@@H]65)C2)C1` [vindesine], the EC50 in the data set on NCTC2544 cells (setting [16]) was found to be 0.51 ± 0.06 nM; in the data set on HeL023 cells (setting [16]), 0.71 ± 0.08 nM; with Jurkat cells (setting [16]), 0.37 ± 0.04 nM; with A375 cells, 0.48 ± 0.05 nM; in the data set with PBMC blasts, 0.86 ± 0.09 nM. Further, the “ECMAX (sub-G1 accumulation)” value was 1.34 ± 0.15 nM with NCTC2544 cells (setting [16]); 2.50 ± 0.27 nM with NCTC2544 cells (vindesine, DMSO (no antagonist)); 1.05 ± 0.09 nM with HeL023 cells (setting [16]). The “ECMAX, concentration exerting the maximal apoptosis (sub-G1)” value in the data set with A375 cells (A375, vindesine with MRE3008F20 10 μM) is 1.66 ± 0.20 nM.
